From patent EP4610269A1, “UROKINASE PLASMINOGEN ACTIVATOR SURFACE RECEPTOR (UPAR) LIGANDS FOR DIAGNOSTIC OR THERAPEUTIC USE” (3B Pharmaceuticals GmbH, priority 2024, dated 2025)
Like-named read-outs stand apart in the source and are kept apart here. *1 amine or outer side, *2 acyl side, *3 side chain or, on linkers, in order; H or OH if unused. Where a SMILES comes first, the peptide text is derived from it. Bridges are numbered along the chain shown (N, C = ends). [ ]: non-standard residue; d: D form. The star is where a group is joined. DOTA = O=C(O)CN1CCN(CC(=O)O)CCN(CC(=O)*)CCN(CC(=O)O)CC1; Pro(4R-NH2) = N[C@H]1CN[C@H](C(=O)O)C1; Ser(ΨH,HPro) = O=C(O)[C@@H]1COCN1; Ala(cPr) = N[C@@H](CC1CC1)C(=O)O; Hyp = O=C(O)[C@@H]1C[C@@H](O)CN1; Pentanoyl(4-Me) = CC(C)CCC(=O)*; Cit = NC(=O)NCCC[C@H](N)C(=O)O; Suc = O=C(CCC(=O)[*:2])[*:1]; Nle = CCCC[C@H](N)C(=O)O; Nva = CCC[C@H](N)C(=O)O; Hexanoyl = CCCCCC(=O)*; Pentanoyl = CCCCC(=O)*; Sar = CNCC(=O)O

Key:
[1] = target: T1, uPAR-expressing HEC-265 human endometrial adenocarcinoma cells (Homo sapiens, UniProt Q03405); test: Competitive FACS binding assay; conditions: pIC50 category of FACS binding
T1 construct: Cell surface uPAR-expressing HEC-265 human endometrial adenocarcinoma cells; host or cells: HEC-265
T1 sequence (Q03405 23-335): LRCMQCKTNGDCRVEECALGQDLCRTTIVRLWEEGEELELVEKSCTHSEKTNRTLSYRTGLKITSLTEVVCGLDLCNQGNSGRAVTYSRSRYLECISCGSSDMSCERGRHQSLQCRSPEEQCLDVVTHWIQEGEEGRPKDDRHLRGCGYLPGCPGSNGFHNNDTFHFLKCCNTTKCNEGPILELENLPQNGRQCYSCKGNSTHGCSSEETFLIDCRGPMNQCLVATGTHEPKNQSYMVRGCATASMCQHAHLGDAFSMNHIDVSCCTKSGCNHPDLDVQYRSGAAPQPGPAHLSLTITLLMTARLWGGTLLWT
Method in brief: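 HEC-265 cells incubated 1 h at 4 °C with 10 nM biotinylated uPAR peptide tracer plus increasing test compound, then stained with APC-streptavidin on ice. Median APC fluorescence by flow cytometry; 4PL fit gives pIC50.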

human uPAR (uPAR-Fc) = target: T2, human uPAR (uPAR-Fc) (Homo sapiens, UniProt Q03405); test: Surface plasmon resonance (SPR) assay, single cycle kinetics; assay type: binding; conditions: pKD category for uPAR SPR activity assay, uPAR-Fc on Protein A-Chip, 25°C, read-out: pKD CAT (converted)
T2 construct: comprising amino acids Leu23-Arg303 according to UniProt entry Q03405.1; purchased R&D Systems 10378-UK-100
T2 sequence (Q03405 23-303): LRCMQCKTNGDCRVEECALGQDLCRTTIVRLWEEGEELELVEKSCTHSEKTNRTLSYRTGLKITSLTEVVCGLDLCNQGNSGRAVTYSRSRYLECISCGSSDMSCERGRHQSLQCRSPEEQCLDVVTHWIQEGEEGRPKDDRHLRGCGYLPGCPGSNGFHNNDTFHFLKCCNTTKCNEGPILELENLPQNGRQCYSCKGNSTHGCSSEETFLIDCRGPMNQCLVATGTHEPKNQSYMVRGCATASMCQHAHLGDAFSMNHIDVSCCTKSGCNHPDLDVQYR
Method in brief: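 uPAR-Fc (Leu23-Arg303 extracellular domains, human IgG1 Fc) captured on Protein A chip to ~2000 RU; single-cycle kinetics at 25°C in HEPES running buffer pH 7.4 with 0.1% DMSO. KD from double-referenced sensorgrams fitted to 1:1 Langmuir model, reported as pKD.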

## CCCC[C@@H]1NC(=O)[C@H](CCCNC(=N)N)NC(=O)[C@@H](NC(=O)[C@H](CC(C)C)NC(=O)[C@H](CC(=O)O)NC(C)=O)CSSC[C@@H](C(N)=O)NC(=O)[C@H](CC(C)C)NC(=O)[C@H]([C@@H](C)CC)NC(=O)[C@H](C)NC(=O)[C@@H]2CCCN2C(=O)[C@H](Cc2ccccc2)NC(=O)[C@H](Cc2ccc(O)cc2)NC1=O [UPAR-270, Ac-Asp-Leu-[Cys-Arg-Nle-Tyr-Phe-Pro-Ala-Ile-Leu-Cys]-NH2] (Ac-DLCR[Nle]YFPAILC-NH2; disulfide 3-12)
[1]
  IC50: ≤ 10 nM
Human uPAR (uPAR-Fc)
  Kd: < 1.58 nM

## CC[C@H](C)[C@@H]1NC(=O)[C@H](C)NC(=O)[C@@H]2CCCN2C(=O)[C@H](Cc2ccccc2)NC(=O)[C@H](Cc2ccc(O)cc2)NC(=O)[C@H](CCSC)NC(=O)[C@H](CCCNC(=N)N)NC(=O)[C@@H](NC(=O)[C@H](CC(C)C)NC(=O)[C@H](CC(=O)O)NC(C)=O)CSSC[C@@H](C(N)=O)NC(=O)[C@H](CC(C)C)NC1=O [UPAR-341, Ac-Asp-Leu-[Cys-Arg-Met-Tyr-Phe-Pro-Ala-Ile-Leu-Cys]-NH2] (Ac-DLCRMYFPAILC-NH2; disulfide 3-12)
[1]
  IC50: ≤ 10 nM
Human uPAR (uPAR-Fc)
  Kd: < 1.58 nM

## CCCCC(=O)N[C@H]1CSSC[C@@H](C(N)=O)NC(=O)[C@H](CC2CC2)NC(=O)[C@H]([C@@H](C)CC)NC(=O)[C@@H]2C[C@@H](O)CN2C(=O)[C@@H]2CCCN2C(=O)[C@H](Cc2ccccc2)NC(=O)[C@H](Cc2ccc(O)cc2)NC(=O)[C@H](CCC(N)=O)NC(=O)[C@H](CCCNC(=N)N)NC1=O [UPAR-379, Pent-[Cys-Arg-Gln-Tyr-Phe-Pro-Hyp-Ile-Cpra-Cys]-NHz] (Pentanoyl-CRQYFP[Hyp]I[Ala(cPr)]C-NH2; disulfide 1-10)
[1]
  IC50: ≤ 10 nM
Human uPAR (uPAR-Fc); single cycle kinetics
  Kd: < 1.58 nM

## CC[C@H](C)[C@@H]1NC(=O)[C@@H](C)NC(=O)[C@@H]2C[C@@H](N)CN2C(=O)[C@H](Cc2ccccc2)NC(=O)[C@H](Cc2ccc(O)cc2)NC(=O)[C@H](CCC(N)=O)NC(=O)[C@H](CCCNC(N)=O)NC(=O)[C@@H](NC(=O)CCC(C)C)CSSC[C@@H](C(N)=O)NC(=O)[C@H](CC(C)C)NC1=O [UPAR-163, iHex-[Cys-Cit-Gln-Tyr-Phe-Tap-ala-Ile-Leu-Cys]-NH2] ({Pentanoyl(4-Me)}-C[Cit]QYF[Pro(4R-NH2)][dA]ILC-NH2; disulfide 1-10)
[1]
  IC50: 12.6 to 31.6 nM
Human uPAR (uPAR-Fc)
  Kd: 1.58 to 10 nM

## CCCCC(=O)N[C@H]1CSSC[C@@H](C(N)=O)NC(=O)[C@H](CCC)NC(=O)[C@H]([C@@H](C)CC)NC(=O)CN(C)C(=O)[C@@H]2CCCN2C(=O)[C@H](Cc2ccccc2)NC(=O)[C@H](Cc2ccc(O)cc2)NC(=O)[C@H](CCCCNC(=O)CN2CCN(CC(=O)O)CCN(CC(=O)O)CCN(CC(=O)O)CC2)NC(=O)[C@H](CCCNC(N)=O)NC1=O [UPAR-177, Pent-[Cys-Cit-Lys(DOTA)-Tyr-Phe-Pro-Nmg-Ile-Nva-Cys]-NH2] (Pentanoyl-C[Cit]K(DOTA)YFP[Sar]I[Nva]C-NH2; disulfide 1-10)
[1]
  IC50: ≤ 10 nM
Human uPAR (uPAR-Fc)
  Kd: 1.58 to 10 nM

## CCCCCC(=O)N[C@@H](CC(=O)O)C(=O)N[C@@H](CC(C)C)C(=O)N[C@H]1CSSC[C@@H](C(N)=O)NC(=O)[C@H](CC(C)C)NC(=O)[C@H]([C@@H](C)CC)NC(=O)[C@H](C)NC(=O)[C@@H]2CCCN2C(=O)[C@H](Cc2ccccc2)NC(=O)[C@H](Cc2ccc(O)cc2)NC(=O)[C@H](CCSC)NC(=O)[C@H](CCCCNC(=O)CN2CCN(CC(=O)O)CCN(CC(=O)O)CCN(CC(=O)O)CC2)NC1=O [UPAR-235, Hex-Asp-Leu-[Cys-Lys(DOTA)-Met-Tyr-Phe-Pro-Ala-Ile-Leu-Cys]-NH2] (Hexanoyl-DLCK(DOTA)MYFPAILC-NH2; disulfide 3-12)
[1]
  IC50: ≤ 10 nM
Human uPAR (uPAR-Fc)
  Kd: < 1.58 nM

## CCC[C@H](NC(=O)CCC(=O)O)C(=O)N[C@H]1CSSC[C@@H](C(N)=O)NC(=O)[C@H](CCC)NC(=O)[C@H]([C@@H](C)CC)NC(=O)[C@@H]2C[C@@H](O)CN2C(=O)[C@@H]2CCCN2C(=O)[C@H](Cc2ccccc2)NC(=O)[C@H](Cc2ccc(O)cc2)NC(=O)[C@H](CCCCNC(=O)CN2CCN(CC(=O)O)CCN(CC(=O)O)CCN(CC(=O)O)CC2)NC(=O)[C@H]([C@@H](C)O)NC1=O [UPAR-297, Succinyl-Nva-[Cys-Thr-Lys(DOTA)-Tyr-Phe-Pro-Hyp-Ile-Nva-Cys]-NH2] (Suc-[Nva]CTK(DOTA)YFP[Hyp]I[Nva]C-NH2; disulfide 2-11)
[1]
  IC50: ≤ 10 nM
Human uPAR (uPAR-Fc)
  Kd: < 1.58 nM

## CC[C@H](C)[C@@H]1NC(=O)[C@@H]2COCN2C(=O)[C@@H]2CCCN2C(=O)[C@H](Cc2ccccc2)NC(=O)[C@H](Cc2ccc(O)cc2)NC(=O)[C@H](CCC(N)=O)NC(=O)[C@H](CCCNC(N)=O)NC(=O)[C@@H](NC(=O)CCC(C)C)CSSC[C@@H](C(N)=O)NC(=O)[C@H](CC(C)C)NC1=O [UPAR-262, iHex-[Cys-Cit-Gln-Tyr-Phe-Pro-Oxa-Ile-Leu-Cys]-NH2] ({Pentanoyl(4-Me)}-C[Cit]QYFP[Ser(ΨH,HPro)]ILC-NH2; disulfide 1-10)
[1]
  IC50: ≤ 10 nM
Human uPAR (uPAR-Fc)
  Kd: < 1.58 nM
